Measured values from patent publication US20060142566A1, “Enantioselective process for the preparation of both enantiomers of 10,11-dihydro-10-hydroxy-5h-dibenz[b,f]azepine-5-carboxamide and new crystal forms thereof” (priority 2002, published 2006).

Tests used:
Assay type in all cases: physicochemical
[1] = solubility in organic and aqueous solutions; conditions: compared to modification B
[2] = hygroscopicity of the crystal modifications
[3] = stability of the crystal forms (bulk stability, thermodynamic stability); conditions: solid form, storage

Row | SMILES | solubility [1] | hygroscopicity [2] | stability of crystal form (thermodynamic) [3]
1 | NC(=O)N1c2ccccc2CC(O)c2ccccc21 (single isomer, unassigned) [modification A, (R)- or (S)-10,11-dihydro-10-hydroxy-5H-dibenz[b,f]azepine-5-carboxamide] | better soluble in organic and aqueous solutions than modification B | Neither modification A nor modification B are hygroscopic | –
2 | NC(=O)N1c2ccccc2CC(O)c2ccccc21 (single isomer, unassigned) [modification B, (R)- or (S)-10,11-dihydro-10-hydroxy-5H-dibenz[b,f]azepine-5-carboxamide] | – | Neither modification A nor modification B are hygroscopic | thermodynamically stable crystalline form
